This test deals with spider web. In words: web eradication / degradation of spider webs by the formulations. More on the design: species or system spiders. The note with it: comparison among the presented formulations; research by the inventors to-date. From the text:
As to the organic acid components of the above formulations, the chemical reaction for web degradation is exemplified by the following: As mentioned, the pH of compositions within the present invention(s) is an important feature of efficacy. […] As compositions of the present invention(s) are fabricated, the constituencies should be adjusted, as needed, to achieve end products of such acidity. Use of the formulations of the present invention is straight forward. In the simplest form, the solutions can be applied by a simple hand-pump garden sprayer. More pressurized, long-reach delivery may be achieved through various motorized pump systems as are readily available in the marketplace. After observed degradation of the target webs, the resulting “clumps” of digested webs may be simply rinsed from any surface with water.

Regarding Lauramidopropyl Betaine, the “efficacy of web eradication (web degradation)” value is “effectively equivalent performance as Cocamipropyl Betaine”.

(Values after patent publication US20240358017A1, “SPIDER WEB ERADICATION AND SPIDER REPELLANT COMPOUND AND METHODS OF USE” (DALRAY, LLC., priority 2023, published 2024).)
